{
  "source": "patent US20020137929A1",
  "about": "“1 - (3-heterocyclylphenyl) isothiourea, -isourea, -guanidine and -amidine herbicidal agents” (Intellectual Property Department, BASF Aktiengesellschaft, priority 1998, published 2002)",
  "key": {"SETVI (Foxtail, Green) [1]": {"test_system": "SETVI (Foxtail, Green)", "assay": "Postemergence herbicidal evaluation", "type": "in vivo, Setaria viridis", "conditions": "postemergence", "method_in_brief": "(§1)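 ~2-wk seedlings; postemergence spray, 40 psi; vehicle 1:1 acetone:water + 0.5% Tween 20; rate ≈0.0156–0.500 kg/ha; greenhouse hold; scored 4–5 wk after treatment, 0–9 scale vs control; repeat tests averaged.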"}, "ORYSAT (Rice, Tebonnet)": {"test_system": "ORYSAT (Rice, Tebonnet)", "assay": "Postemergence herbicidal evaluation", "type": "in vivo, Oryza sativa, (L.) Tebonnet", "conditions": "postemergence", "method_in_brief": "as §1"}, "ZEAMX (Corn, Field) [2]": {"test_system": "ZEAMX (Corn, Field)", "assay": "Postemergence herbicidal evaluation", "type": "in vivo, Zea mays", "conditions": "postemergence", "method_in_brief": "as §1"}, "ECHCG (Barnyardgrass)": {"test_system": "ECHCG (Barnyardgrass)", "assay": "Preemergence herbicidal evaluation", "type": "in vivo, Echinochloa crus-galli", "conditions": "rate 0.2500 kg/ha; rated 4-5 weeks after treatment", "method_in_brief": "(§2)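 Each species is sown separately in potting soil over roughly an inch of soil before any emergence. The soil surface then receives an aqueous acetone spray delivering about 0.0156 to 0.500 kg/ha of compound. After four to five weeks, injury is scored from 0 to 9 relative to a control.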"}, "SETVI (Foxtail, Green) [3]": {"test_system": "SETVI (Foxtail, Green)", "assay": "Preemergence herbicidal evaluation", "type": "in vivo, Setaria viridis", "conditions": "rate 0.2500 kg/ha; rated 4-5 weeks after treatment", "method_in_brief": "as §2"}, "[4]": {"test_system": "TRZAWR (Wheat, Winter, cv Riband)", "assay": "Preemergence herbicidal evaluation", "type": "in vivo, Triticum aestivum", "conditions": "rate 0.2500 kg/ha; rated 4-5 weeks after treatment", "method_in_brief": "as §2"}, "ZEAMX (Corn, Field) [5]": {"test_system": "ZEAMX (Corn, Field)", "assay": "Preemergence herbicidal evaluation", "type": "in vivo, Zea mays", "conditions": "rate 0.2500 kg/ha; rated 4-5 weeks after treatment", "method_in_brief": "as §2"}, "[6]": {"test_system": "ECHORC (Watergrass (Calif.))", "assay": "Preemergence weed control under flooded paddy conditions", "type": "in vivo, Echinochloa oryzoides", "conditions": "rated 3-4 weeks after treatment", "method_in_brief": "(§3)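 First, seeds or propagules go into the top 0.5 cm of silt loam; next, water is held 1.5 to 3 cm over the soil; then compound (50/50 acetone/water) is pipetted into it at about 0.0313 to 0.500 kg/ha; finally plants are rated visually 0-9 after three to four weeks.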"}, "CYPIR (Rice Flatsedge) [7]": {"test_system": "CYPIR (Rice Flatsedge)", "assay": "Preemergence weed control under flooded paddy conditions", "type": "in vivo, Cyperus iria", "conditions": "rated 3-4 weeks after treatment", "method_in_brief": "as §3"}, "CYPSE (Flatsedge) [8]": {"test_system": "CYPSE (Flatsedge)", "assay": "Preemergence weed control under flooded paddy conditions", "type": "in vivo, Cyperus serotinus", "conditions": "rated 3-4 weeks after treatment", "method_in_brief": "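Greenhouse paddy assay. Acetone/water (50/50 v/v) solutions dosed into flood water, equivalent to about 0.0313 to 0.500 kg/ha active ingredient, over seeds planted 0.5 cm deep in silt loam. Score: 0-9 visual, based on stand, vigor, malformation, size and chlorosis, 3 to 4 weeks after treatment.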"}, "[9]": {"test_system": "ECHORC (Watergrass (Calif.))", "assay": "Postemergence weed control under flooded paddy conditions", "type": "in vivo, Echinochloa oryzoides", "conditions": "postemergence weeds, 3-4 weeks after treatment", "method_in_brief": "(§4)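 Injury ratings (0–9 scale covering stand, vigor, malformation, size, chlorosis and overall appearance versus control) were made three to four weeks after treatment. Test material, about 0.0313 to 0.500 kg/ha a.i. in 50/50 v/v aqueous/acetone, was added to flood water 1.5 to 3 cm deep over 3 to 5 cm weeds and 1.5 to 2.5 leaf rice.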"}, "CYPIR (Rice Flatsedge) [10]": {"test_system": "CYPIR (Rice Flatsedge)", "assay": "Postemergence weed control under flooded paddy conditions", "type": "in vivo, Cyperus iria", "conditions": "postemergence weeds, 3-4 weeks after treatment", "method_in_brief": "as §4"}, "CYPSE (Flatsedge) [11]": {"test_system": "CYPSE (Flatsedge)", "assay": "Postemergence weed control under flooded paddy conditions", "type": "in vivo, Cyperus serotinus", "conditions": "postemergence weeds, 3-4 weeks after treatment", "method_in_brief": "as §4"}, "[12]": {"test_system": "SAGPY (Arrowhead (Pygmaea))", "assay": "Postemergence weed control under flooded paddy conditions", "type": "in vivo, Sagittaria pygmaea", "conditions": "postemergence weeds, 3-4 weeks after treatment", "method_in_brief": "as §4"}},
  "data": [
    {"molecule": "CCOC(=O)CN1C(=O)C(=Cc2ccc(F)cc2)SC1=Nc1cc(-n2c(=O)cc(C(F)(F)F)n(C)c2=O)c(F)cc1Cl", "note": "[Compound 21, Ethyl 2-{{2-chloro-5-[3,6-dihydro-3-methyl-2,6-dioxo-4-(trifluoromethyl)-1(2H)-pyrimidinyl]-4-fluorophenyl}imino}-5-(p-fluorobenzylidene)-4-oxo-3-thiazolidineacetate]", "values": [
      {"measurement": "SETVI herbicidal rating", "setting": "SETVI (Foxtail, Green) [1]; rate 0.0158 kg/ha", "result": 0.0},
      {"measurement": "SETVI herbicidal rating", "setting": "SETVI (Foxtail, Green) [1]; rate 0.0315 kg/ha", "result": 2.0},
      {"measurement": "SETVI herbicidal rating", "setting": "SETVI (Foxtail, Green) [1]; rate 0.0630 kg/ha", "result": 2.0},
      {"measurement": "ORYSAT herbicidal rating", "setting": "ORYSAT (Rice, Tebonnet); rate 0.0158 kg/ha", "result": 2.0},
      {"measurement": "ORYSAT herbicidal rating", "setting": "ORYSAT (Rice, Tebonnet); rate 0.0315 kg/ha", "result": 2.5},
      {"measurement": "ORYSAT herbicidal rating", "setting": "ORYSAT (Rice, Tebonnet); rate 0.0630 kg/ha", "result": 2.5},
      {"measurement": "ZEAMX herbicidal rating", "setting": "ZEAMX (Corn, Field) [2]; rate 0.0158 kg/ha", "result": 4.0},
      {"measurement": "ZEAMX herbicidal rating", "setting": "ZEAMX (Corn, Field) [2]; rate 0.0315 kg/ha", "result": 4.0},
      {"measurement": "ZEAMX herbicidal rating", "setting": "ZEAMX (Corn, Field) [2]; rate 0.0630 kg/ha", "result": 4.5},
      {"measurement": "ECHCG preemergence herbicidal rating", "setting": "ECHCG (Barnyardgrass)", "result": 0.0},
      {"measurement": "SETVI preemergence herbicidal rating", "setting": "SETVI (Foxtail, Green) [3]", "result": 0.0},
      {"measurement": "TRZAWR preemergence herbicidal rating", "setting": "[4]", "result": 0.0},
      {"measurement": "ZEAMX preemergence herbicidal rating", "setting": "ZEAMX (Corn, Field) [5]", "result": 0.0},
      {"measurement": "Herbicidal rating ECHORC", "setting": "[6]; 0.1160 kg/ha", "result": 2.0},
      {"measurement": "Herbicidal rating ECHORC", "setting": "[6]; 0.2310 kg/ha", "result": 4.0},
      {"measurement": "Herbicidal rating ECHORC", "setting": "[6]; 0.4630 kg/ha", "result": 5.0},
      {"measurement": "Herbicidal rating CYPIR", "setting": "CYPIR (Rice Flatsedge) [7]; 0.1160 kg/ha", "result": 0.0},
      {"measurement": "Herbicidal rating CYPIR", "setting": "CYPIR (Rice Flatsedge) [7]; 0.2310 kg/ha", "result": 0.0},
      {"measurement": "Herbicidal rating CYPIR", "setting": "CYPIR (Rice Flatsedge) [7]; 0.4630 kg/ha", "result": 0.0},
      {"measurement": "Herbicidal rating CYPSE", "setting": "CYPSE (Flatsedge) [8]; 0.1160 kg/ha", "result": 0.0},
      {"measurement": "Herbicidal rating CYPSE", "setting": "CYPSE (Flatsedge) [8]; 0.2310 kg/ha", "result": 0.0},
      {"measurement": "Herbicidal rating CYPSE", "setting": "CYPSE (Flatsedge) [8]; 0.4630 kg/ha", "result": 0.0},
      {"measurement": "Herbicidal rating ECHORC", "setting": "[9]; rate 0.1160 kg/ha", "result": 2.0},
      {"measurement": "Herbicidal rating ECHORC", "setting": "[9]; rate 0.2310 kg/ha", "result": 4.0},
      {"measurement": "Herbicidal rating ECHORC", "setting": "[9]; rate 0.4630 kg/ha", "result": 5.0},
      {"measurement": "Herbicidal rating CYPIR", "setting": "CYPIR (Rice Flatsedge) [10]; rate 0.1160 kg/ha", "result": 0.0},
      {"measurement": "Herbicidal rating CYPIR", "setting": "CYPIR (Rice Flatsedge) [10]; rate 0.2310 kg/ha", "result": 0.0},
      {"measurement": "Herbicidal rating CYPIR", "setting": "CYPIR (Rice Flatsedge) [10]; rate 0.4630 kg/ha", "result": 0.0},
      {"measurement": "Herbicidal rating CYPSE", "setting": "CYPSE (Flatsedge) [11]; rate 0.1160 kg/ha", "result": 0.0},
      {"measurement": "Herbicidal rating CYPSE", "setting": "CYPSE (Flatsedge) [11]; rate 0.2310 kg/ha", "result": 0.0},
      {"measurement": "Herbicidal rating CYPSE", "setting": "CYPSE (Flatsedge) [11]; rate 0.4630 kg/ha", "result": 0.0},
      {"measurement": "Herbicidal rating SAGPY", "setting": "[12]; rate 0.1160 kg/ha", "result": 0.0},
      {"measurement": "Herbicidal rating SAGPY", "setting": "[12]; rate 0.2310 kg/ha", "result": 0.0},
      {"measurement": "Herbicidal rating SAGPY", "setting": "[12]; rate 0.4630 kg/ha", "result": 0.0}
    ]}
  ]
}
